Assay results: PubChem BioAssay AID248 (DTP/NCI, 2004)
Where “and” joins values, the source holds several entries; their conditions need not be identical. Equal entries are not always repeated. Toxic doses and inconclusive results are not listed. Rule as the data show it: active = T/C of 150% or more; inactive = T/C below 125%.

System: L1210 leukemia ip in BDF1 mice, survival T/C
Assay: NCI In Vivo Anticancer Drug Screen. Data for tumor model L1210 Leukemia (intraperitoneal) in B6D2F1 (BDF1) mice
Conditions: endpoint: mean survival time, higher = longer survival
How it was run: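 Each compound was tested against a transplantable tumor grown in mice. The endpoint was survival, with treated animals benchmarked against vehicle controls as a simple ratio.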

[1] = dose: 25.0 mg/kg/injection, schedule: Q01DX009 (ip), vehicle: Klucel (hydroxypropylcellulose) (HPC)
[2] = dose: 50.0 mg/kg/injection, schedule: Q01DX009 (ip), vehicle: Klucel (hydroxypropylcellulose) (HPC)
[3] = dose: 100.0 mg/kg/injection, schedule: Q01DX001 (ip), vehicle: saline
[4] = dose: 100.0 mg/kg/injection, schedule: Q04DX002 (ip), vehicle: Klucel (hydroxypropylcellulose) (HPC)
[5] = dose: 200.0 mg/kg/injection, schedule: Q01DX001 (ip), vehicle: saline
[6] = dose: 200.0 mg/kg/injection, schedule: Q04DX002 (ip), vehicle: Klucel (hydroxypropylcellulose) (HPC)
[7] = dose: 25.0 mg/kg/injection, schedule: Q04DX003 (ip), vehicle: Klucel (hydroxypropylcellulose) (HPC)
[8] = dose: 50.0 mg/kg/injection, schedule: Q04DX003 (ip), vehicle: Klucel (hydroxypropylcellulose) (HPC)
[9] = dose: 100.0 mg/kg/injection, schedule: Q01DX009 (ip), vehicle: Klucel (hydroxypropylcellulose) (HPC)
[10] = dose: 100.0 mg/kg/injection, schedule: Q04DX003 (ip), vehicle: Klucel (hydroxypropylcellulose) (HPC)
[11] = dose: 50.0 mg/kg/injection, schedule: Q01DX009 (ip), vehicle: saline with Tween-80
[12] = dose: 100.0 mg/kg/injection, schedule: Q01DX009 (ip), vehicle: saline with Tween-80
[13] = dose: 200.0 mg/kg/injection, schedule: Q01DX009 (ip), vehicle: saline with Tween-80
[14] = dose: 200.0 mg/kg/injection, schedule: Q04DX003 (ip), vehicle: Klucel (hydroxypropylcellulose) (HPC)
[15] = dose: 100.0 mg/kg/injection, schedule: Q04DX003 (ip), vehicle: saline with Tween-80
[16] = dose: 200.0 mg/kg/injection, schedule: Q04DX003 (ip), vehicle: saline with Tween-80
[17] = dose: 400.0 mg/kg/injection, schedule: Q01DX009 (ip), vehicle: saline with Tween-80
[18] = dose: 400.0 mg/kg/injection, schedule: Q04DX003 (ip), vehicle: saline with Tween-80
[19] = dose: 100.0 mg/kg/injection, schedule: Q01DX001 (ip), vehicle: saline with Tween-80
[20] = dose: 100.0 mg/kg/injection, schedule: Q01DX001 (ip), vehicle: carboxymethylcellulose (CMC)
[21] = dose: 200.0 mg/kg/injection, schedule: Q01DX001 (ip), vehicle: carboxymethylcellulose (CMC)
[22] = dose: 400.0 mg/kg/injection, schedule: Q01DX001 (ip), vehicle: carboxymethylcellulose (CMC)
[23] = dose: 400.0 mg/kg/injection, schedule: Q01DX009 (ip), vehicle: Klucel (hydroxypropylcellulose) (HPC)

Measured: T/C

O=C1C(O)=C(c2ccccc2)C(=O)C(O)=C1c1ccccc1
inactive: dose: 25.0 mg/kg/injection, schedule: Q01DX001 (ip), vehicle: saline 95 % of control | [1] 100 % of control | dose: 50.0 mg/kg/injection, schedule: Q01DX001 (ip), vehicle: saline 104 % of control | [2] 105 % of control | dose: 50.0 mg/kg/injection, schedule: Q04DX002 (ip), vehicle: Klucel (hydroxypropylcellulose) (HPC) 98 % of control | [3] 96 % of control | [4] 120 % of control | [5] 104 % of control | [6] 91 % of control

ClCCN(CCCl)c1ccc(-n2cnc3c(Cl)ncnc32)cc1
inactive: dose: 32.0 mg/kg/injection, schedule: Q01DX015 (ip), vehicle: carboxymethylcellulose (CMC) 96 % of control | dose: 64.0 mg/kg/injection, schedule: Q01DX015 (ip), vehicle: carboxymethylcellulose (CMC) 96 % of control | dose: 128.0 mg/kg/injection, schedule: Q01DX015 (ip), vehicle: carboxymethylcellulose (CMC) 97 % of control | dose: 256.0 mg/kg/injection, schedule: Q01DX015 (ip), vehicle: carboxymethylcellulose (CMC) 105 % of control

C=C1C(=O)OCC2(CC)CCCCC12 (configuration not stated)
inactive: dose: 20.0 mg/kg/injection, schedule: Q01DX009 (ip), vehicle: saline with Tween-80 103 % of control | dose: 40.0 mg/kg/injection, schedule: Q01DX009 (ip), vehicle: saline with Tween-80 106 % of control | dose: 80.0 mg/kg/injection, schedule: Q01DX009 (ip), vehicle: saline with Tween-80 91 % of control | dose: 160.0 mg/kg/injection, schedule: Q01DX009 (ip), vehicle: saline with Tween-80 98 % of control

CCC(C)C(C#N)(CCN(C)C)Cc1cccc2ccccc12 (configuration not stated)
inactive: [7] 97 % of control | [8] 92 % of control | [9] 100 % of control | [10] 103 % of control

COc1ccc(OC)c(/C=C(/C)[N+](=O)[O-])c1
inactive: [11] 109 % of control | [12] 109 % of control | [10] 97 % of control | [13] 109 % of control | [14] 108 % of control

CN(C)CCCC1C2CCC(C2)C1C#N (configuration not stated)
inactive: dose: 12.5 mg/kg/injection, schedule: Q01DX009 (ip), vehicle: Klucel (hydroxypropylcellulose) (HPC) 104 % of control | [1] 95 % of control | [7] 96 % of control | [2] 104 % of control | [8] 93 % of control

CC1=C(C#N)C2(CCN(C)CC2)C(C#N)=C(C)N1
inactive: dose: 75.0 mg/kg/injection, schedule: Q01DX001 (ip), vehicle: carboxymethylcellulose (CMC) 105 % of control | dose: 75.0 mg/kg/injection, schedule: Q01DX001 (ip), vehicle: saline 104 % of control | dose: 150.0 mg/kg/injection, schedule: Q01DX001 (ip), vehicle: carboxymethylcellulose (CMC) 109 % of control

COc1ccc(C(=O)C(C)C=O)c(OCc2ccccc2)c1OC (configuration not stated)
inactive: [11] 98 % of control | [12] 96 % of control | [15] 114 % of control | [13] 93 % of control | [16] 95 % of control | [17] 97 % of control | [18] 103 % of control

Nc1nc(N)c(-c2ccc(Cl)c(Cl)c2)c(CBr)n1
inactive: dose: 1.56 mg/kg/injection, schedule: Q01DX009 (ip), vehicle: saline with Tween-80 101 % of control | dose: 3.13 mg/kg/injection, schedule: Q01DX009 (ip), vehicle: saline with Tween-80 101 % of control and 92 % of control | dose: 6.25 mg/kg/injection, schedule: Q01DX009 (ip), vehicle: saline with Tween-80 102 % of control | dose: 12.5 mg/kg/injection, schedule: Q01DX009 (ip), vehicle: saline with Tween-80 99 % of control and 101 % of control | dose: 12.5 mg/kg/injection, schedule: Q04DX003 (ip), vehicle: Klucel (hydroxypropylcellulose) (HPC) 90 % of control | [7] 113 % of control | [8] 87 % of control | [10] 87 % of control

O=C1CN(CCl)C(=O)CN1CCl
inactive: dose: 50.0 mg/kg/injection, schedule: Q01DX009 (ip), vehicle: water 100 % of control | dose: 100.0 mg/kg/injection, schedule: Q01DX009 (ip), vehicle: water 101 % of control | dose: 100.0 mg/kg/injection, schedule: Q04DX003 (ip), vehicle: water 113 % of control | dose: 200.0 mg/kg/injection, schedule: Q04DX003 (ip), vehicle: water 110 % of control | dose: 400.0 mg/kg/injection, schedule: Q04DX003 (ip), vehicle: water 113 % of control

O=C(O)CS(=O)(=O)C(c1ccccc1)c1ccccc1
inactive: [3] 94 % of control | [5] 97 % of control | dose: 400.0 mg/kg/injection, schedule: Q01DX001 (ip), vehicle: saline 96 % of control

c1cnc2nc3[nH]c4ccccc4c3nc2c1
inactive: dose: 25.0 mg/kg/injection, schedule: Q01DX009 (ip), vehicle: saline with Tween-80 92 % of control | dose: 50.0 mg/kg/injection, schedule: Q01DX001 (oral), vehicle: saline with Tween-80 107 % of control | [11] 92 % of control and 89 % of control | dose: 50.0 mg/kg/injection, schedule: Q04DX003 (ip), vehicle: saline with Tween-80 96 % of control | dose: 100.0 mg/kg/injection, schedule: Q01DX001 (oral), vehicle: saline with Tween-80 115 % of control | [12] 94 % of control and 91 % of control | [15] 88 % of control | dose: 200.0 mg/kg/injection, schedule: Q01DX001 (oral), vehicle: saline with Tween-80 110 % of control | [13] 92 % of control and 94 % of control | [16] 90 % of control | dose: 400.0 mg/kg/injection, schedule: Q01DX001 (oral), vehicle: saline with Tween-80 108 % of control | [17] 92 % of control | [18] 86 % of control | dose: 800.0 mg/kg/injection, schedule: Q01DX001 (oral), vehicle: saline with Tween-80 105 % of control

O=c1[nH]nnc2nc(Cc3ccc([N+](=O)[O-])cc3)[nH]c12
inactive: [19] 98 % of control

CC1(O)CSC(C)(O)CS1 (configuration not stated)
inactive: dose: 50.0 mg/kg/injection, schedule: Q04DX002 (ip), vehicle: saline with Tween-80 98 % of control | dose: 100.0 mg/kg/injection, schedule: Q04DX002 (ip), vehicle: saline with Tween-80 88 % of control

O=C(Oc1ccccc1)c1cc(Br)ccc1O
inactive: [20] 97 % of control | [21] 95 % of control | [22] 100 % of control

N#CC(c1ccc(Cl)cc1)C(C/C(=N/Nc1ccc([N+](=O)[O-])cc1[N+](=O)[O-])c1ccccc1)c1ccccc1 (configuration not stated)
inactive: dose: 25.0 mg/kg/injection, schedule: Q01DX001 (ip), vehicle: saline with Tween-80 91 % of control | dose: 50.0 mg/kg/injection, schedule: Q01DX001 (ip), vehicle: saline with Tween-80 93 % of control | [19] 95 % of control

O=C(Nc1cccc(F)c1)Sc1ccc(Cl)cc1
inactive: [1] 98 % of control | [2] 108 % of control | [9] 105 % of control and 106 % of control and 112 % of control | [4] 95 % of control | [6] 98 % of control | [23] 86 % of control | dose: 400.0 mg/kg/injection, schedule: Q04DX002 (ip), vehicle: Klucel (hydroxypropylcellulose) (HPC) 109 % of control

COc1cccc(C2N(Cc3ccccc3OC)CCCN2Cc2ccccc2OC)c1
inactive: dose: 50.0 mg/kg/injection, schedule: Q01DX001 (ip), vehicle: carboxymethylcellulose (CMC) 93 % of control | [20] 102 % of control | [21] 106 % of control | [22] 102 % of control

O=c1cc(-c2ccccc2)nc(Nc2nc3ccc([N+](=O)[O-])cc3[nH]2)[nH]1
inactive: [9] 95 % of control | [10] 100 % of control | dose: 200.0 mg/kg/injection, schedule: Q01DX009 (ip), vehicle: Klucel (hydroxypropylcellulose) (HPC) 95 % of control | [14] 103 % of control | [23] 87 % of control | dose: 400.0 mg/kg/injection, schedule: Q04DX003 (ip), vehicle: Klucel (hydroxypropylcellulose) (HPC) 106 % of control
